{"source": "patent US20140303145A1", "about": "“PHARMACEUTICAL COMPOSITION COMPRISING A POORLY WATER-SOLUBLE ACTIVE INGREDIENT, A SURFACTANT AND A WATER-SOLUBLE POLYMER” (NOVARTIS AG, priority 2001, published 2014)", "assay_type_in_all_cases": "physicochemical", "key": {"[1]": {"assay": "Water solubility of PKC412", "protocol": "(water solubility: <0.1 mg/l), which is referred to hereinafter as PKC412."}, "[2]": {"assay": "Dissolution behaviour of capsules (Paddle method USP XXIV, SIFmod)", "conditions": "based on a 25 mg dosage; 1 litre SIFmod pH 6.8; capsule test", "protocol": "(§1) The medium used for the dissolution behaviour test is 1 litre of a surfactant-free, modified medium according to “Intestinal Fluid, Simulated, TS” from USP XXIV (SIFmod). KH2PO4 is replaced by NaH2PO4. Pancreatin is not added (pH 6.8).\nThe dissolution test is carried out according to the “Paddle method” of USP XXIV at 37° C. and at a stirring rate of 50 rpm with a Sotax AT6 (Sotax, Basle, Switzerland). The capsules are placed in a teflon-coated sinker (ATN, Pfaffenheim, France), in order to allow them to remain on the bottom of the dissolution container.\nThe average amounts of active ingredient released from each of 3 capsules of 25 mg PKC412 according to examples C1 and C2 are given in Table 7 as a percentage of the theoretical content."}, "[3]": {"assay": "Dissolution behaviour of tablets (Paddle method USP XXIV, SIFmod)", "conditions": "based on a 25 mg dosage; 1 litre SIFmod pH 6.8; tablet test", "protocol": "as §1\nThe dissolution test is carried out according to the “Paddle method” of USP XXIV at 37° C. and at a stirring rate of 50 rpm with a Sotax AT6 (Sotax, Basle, Switzerland). The tablets were added and the amounts of active ingredient released were analysed.\nThe average amounts of active ingredient released from each of 3 tablets of 25 mg PKC412 according to examples C4-C6 are given in Table 8 as a percentage of the theoretical content."}}, "data": [{"molecule": "CO[C@@H]1[C@H](N(C)C(=O)c2ccccc2)C[C@H]2O[C@]1(C)n1c3ccccc3c3c4c(c5c6ccccc6n2c5c31)C(=O)NC4", "note": "[PKC412]", "values": [{"measurement": "solubility", "setting": "[1]", "result": "< 0.1", "unit": "µg/mL"}, {"measurement": "comparable solubility of untreated PKC412", "setting": "[2]", "result": "< 0.4 % of the theoretical content"}, {"measurement": "comparable solubility of untreated PKC412", "setting": "[3]", "result": "< 0.4 % of the theoretical content"}]}]}
